Values after ≈ are worked out from the molar mass of the structure shown. Where two headings read alike, the source gives them in different places.
Experiments:
[1] = tested on: P. aeruginosa Δ3-Pore (GKCW116, FhuAΔC/Δ4L pore); assay: MIC, two-fold broth dilution, P. aeruginosa Δ3-Pore; details: for MIC Δ3 Pore: P. aeruginosa Δ3-Pore, 0.1 mM IPTG, LB, 37° C., 16 h
Procedure: (§1) Susceptibilities of E. coli and P. aeruginosa cells to different classes of antibiotics were determined by two-fold broth dilution method [1] with following modifications. Cells were grown in Luria-Bertani (LB) broth (tryptone 10 g/L, yeast extract 5 g/L and NaCl 5 g/L) with appropriate selection markers as needed, at 37° C. with shaking at 200 rpm. When needed, at OD600˜0.3, either L-arabinose (final concentration 0.1%) or IPTG (final concentration 0.1 mM) were added to induce the expression of the pore and cells were further incubated until OD600 reached 1.0. MICs of various antimicrobial agents were measured in 96-well micro-titer plates. For this purpose, exponentially growing cells were inoculated at a density of 10^5 cells/ml into wells containing LB medium in the presence of two-fold increasing concentrations of drugs under investigation at constant inducer concentration of 0.1% arabinose for E. coli or 0.1 mM IPTG for P. aeruginosa strains. Cell growth was determined visually or using Spark 10M microplate reader (Tecan) after incubation of the micro-titer plates at 37° C. for 16 h.
(§2) For this purpose, induced cells were dispensed into 96-well microplates with LB medium containing two-fold dilutions of an antibiotic of interest and a respective concentration of an inducer.

[2] = tested on: P. aeruginosa PAO1Δ3 (Δ3); details: for MIC Δ3 —: P. aeruginosa Δ3 without pore, 0.1 mM IPTG, LB, 37° C., 16 h
Procedure: as §1, §2

P. aeruginosa PAO1 [3] = details: P. aeruginosa PAO1 without pore; 0.1 mM IPTG; LB, 37° C., 16 h
Procedure: as §1, §2

[4] = tested on: P. aeruginosa PAO1, PAO1-Pore, Δ3, Δ3-Pore; assay: Fold MIC change between P. aeruginosa strains (OM barrier, efflux); type: cell-based, Pseudomonas aeruginosa; details: for Fold MIC change, Efflux, PAO1-Pore/Δ3-Pore / Fold MIC change, Efflux, PAO1/Δ3 / Fold MIC change, OM barrier, PAO1/PAO1-Pore / Fold MIC change, OM barrier, Δ3/Δ3-Pore: P. aeruginosa
[5] = tested on: P. aeruginosa PAO1-Pore (GKCW115, FhuAΔC/Δ4L pore); assay: MIC, two-fold broth dilution, P. aeruginosa PAO1-Pore; details: for MIC PAO1 Pore: P. aeruginosa PAO1-Pore, 0.1 mM IPTG, LB, 37° C., 16 h; for MIC: Pseudomonas aeruginosa
Procedure: as §1, §2

[6] = tested on: E. coli WT, WT-Pore, ΔTolC, ΔTolC-Pore; type: cell-based, Escherichia coli; details: for Fold MIC change, Efflux, WT-Pore/ΔTolC-Pore / Fold MIC change, Efflux, WT/ΔTolC / Fold MIC change, OM barrier, WT/WT-Pore / Fold MIC change, OM barrier, ΔTolC/ΔTolC-Pore: E. coli
[7] = tested on: E. coli WT-Pore (GKCW101, FhuAΔC/Δ4L pore); assay: microbe, parasite or virus in culture; details: Escherichia coli
Procedure: as §1, §2

E. coli GD102 (ΔTolC) = details: for MIC GD102 (ΔTolC) —: E. coli ΔTolC without pore, 0.1% arabinose, LB, 37° C., 16 h
Procedure: as §1, §2

E. coli BW 25113 (WT) [8] = assay: microbe, parasite or virus in culture; details: Escherichia coli
Procedure: as §1, §2

[9] = tested on: E. coli WT-Pore (GKCW101, FhuAΔC/Δ4L pore); details: 0.1% arabinose, LB, 37° C., 16 h
Procedure: as §1, §2

E. coli BW 25113 (WT) [10] = details: E. coli WT without pore; 0.1% arabinose; LB, 37° C., 16 h
Procedure: as §1, §2

[11] = tested on: E. coli ΔTolC-Pore (GKCW103, FhuAΔC/Δ4L pore); details: 0.1% arabinose, LB, 37° C., 16 h
Procedure: as §1, §2

P. aeruginosa PAO1 [12] = assay: microbe, parasite or virus in culture; details: Pseudomonas aeruginosa, PAO1, 16 h, read-out: MIC PAO1 —
Procedure: as §1, §2

[13] = 16 h, read-out: MIC BW 25113 (WT) Pore
[14] = 16 h, read-out: MIC BW 25113 (WT) —

Molecule: Tobramycin
- MIC Δ3 Pore [1]: 0.5 µg/mL
- MIC Δ3 — [2]: 0.5 µg/mL
- MIC PAO1 — (P. aeruginosa PAO1 [3]): 2 µg/mL
- Fold MIC change, Efflux, PAO1-Pore/Δ3-Pore [4]: 2 fold
- Fold MIC change, Efflux, PAO1/Δ3 [4]: 4 fold
- Fold MIC change, OM barrier, PAO1/PAO1-Pore [4]: 2 fold
- Fold MIC change, OM barrier, Δ3/Δ3-Pore [4]: 1 fold
- MIC PAO1 Pore [5]: 1 µg/mL

Molecule: CC[C@H]1OC(=O)[C@H](C)[C@@H](O[C@H]2C[C@@](C)(OC)[C@@H](O)[C@H](C)O2)[C@H](C)[C@@H](O[C@@H]2O[C@H](C)C[C@H](N(C)C)[C@H]2O)[C@](C)(O)C[C@@H](C)C(=O)[C@H](C)[C@@H](O)[C@]1(C)O [Erythromycin]
- MIC in P. aeruginosa Δ3-Pore cells ([1]; induced, plateau with increasing IPTG (FIG. 5)): 0.085 µM (≈ 0.0624 µg/mL)
- Additional decrease of MIC in permeabilized ΔTolC-Pore cells ([6]; FIG. 4A): 16 fold
- Difference of MICs in E. coli WT and ΔTolC cells ([6]; FIG. 4A): 16 fold
- Reduction of MIC by permeabilization of the outer membrane in WT-Pore E. coli ([6]; FIG. 4A): 64 fold
- Total potentiation (WT to ΔTolC-Pore) ([6]; FIG. 4A): 512 fold
- MIC in P. aeruginosa Δ3 cells ([2]; FIG. 5): 21.8 µM (≈ 16 µg/mL)
- MIC Δ3 — [2]: 16 µg/mL (≈ 21.8 µM)
- MIC [7, 13]: 4 µg/mL
- MIC ([7]; read-out: MIC in E. coli WT-Pore cells): 1.4 µM
- Change of MIC on inactivation of the three major efflux pumps (PAO1 vs Δ3) [4]: 8 fold
- MIC GD102 (ΔTolC) — (E. coli GD102 (ΔTolC)): 4 µg/mL (≈ 5.45 µM)
- MIC in E. coli ΔTolC cells (E. coli GD102 (ΔTolC); unchanged in the range of 0.001-0.5% arabinose (FIG. 4A)): 5.5 µM (≈ 4.04 µg/mL)
- MIC ([5]; PAO1, read-out: MIC in P. aeruginosa PAO1-Pore cells): 1.4 µM
- MIC (E. coli BW 25113 (WT) [8]; [14]): 64 µg/mL
- MIC (E. coli BW 25113 (WT) [8]; read-out: MIC in E. coli WT cells): 87 µM

Molecule: Coumermycin
- MIC Δ3 Pore [1]: 1 µg/mL
- MIC BW 25113 (WT) Pore [9]: 2 µg/mL
- Fold MIC change, Efflux, WT-Pore/ΔTolC-Pore [6]: 4 fold
- Fold MIC change, Efflux, WT/ΔTolC [6]: 1 fold
- Fold MIC change, OM barrier, WT/WT-Pore [6]: 4 fold
- Fold MIC change, OM barrier, ΔTolC/ΔTolC-Pore [6]: 16 fold
- MIC Δ3 — [2]: 16 µg/mL
- MIC PAO1 — (P. aeruginosa PAO1 [3]): 16 µg/mL
- Fold MIC change, Efflux, PAO1-Pore/Δ3-Pore [4]: 1 fold
- Fold MIC change, Efflux, PAO1/Δ3 [4]: 1 fold
- Fold MIC change, OM barrier, PAO1/PAO1-Pore [4]: 16 fold
- Fold MIC change, OM barrier, Δ3/Δ3-Pore [4]: 16 fold
- MIC BW 25113 (WT) — (E. coli BW 25113 (WT) [10]): 8 µg/mL
- MIC GD102 (ΔTolC) — (E. coli GD102 (ΔTolC)): 8 µg/mL
- MIC GD102 (ΔTolC) Pore [11]: 0.5 µg/mL
- MIC PAO1 Pore [5]: 1 µg/mL

Molecule: CCCCCCCCCCCCOS(=O)(=O)[O-].[Na+] [SDS]
- MIC Δ3 Pore [1]: 156.3 µg/mL
- MIC BW 25113 (WT) Pore [9]: 10000 µg/mL
- Fold MIC change, Efflux, WT-Pore/ΔTolC-Pore [6]: 2000 fold
- Fold MIC change, Efflux, WT/ΔTolC [6]: 2000 fold
- Fold MIC change, OM barrier, WT/WT-Pore [6]: 1 fold
- Fold MIC change, OM barrier, ΔTolC/ΔTolC-Pore [6]: 1 fold
- MIC Δ3 — [2]: 10000 µg/mL
- MIC PAO1 — (P. aeruginosa PAO1 [3]): >10000 µg/mL
- Fold MIC change, Efflux, PAO1-Pore/Δ3-Pore [4]: 64 fold
- Fold MIC change, Efflux, PAO1/Δ3 [4]: ≧2 fold
- Fold MIC change, OM barrier, PAO1/PAO1-Pore [4]: ≧2 fold
- Fold MIC change, OM barrier, Δ3/Δ3-Pore [4]: 64 fold
- MIC BW 25113 (WT) — (E. coli BW 25113 (WT) [10]): 10000 µg/mL
- MIC GD102 (ΔTolC) — (E. coli GD102 (ΔTolC)): 5 µg/mL
- MIC GD102 (ΔTolC) Pore [11]: 5 µg/mL
- MIC PAO1 Pore [5]: 10000 µg/mL

Molecule: Gentamicin
- MIC BW 25113 (WT) Pore [9]: 2 µg/mL
- Fold MIC change, Efflux, WT-Pore/ΔTolC-Pore [6]: 0.5 fold
- Fold MIC change, Efflux, WT/ΔTolC [6]: 1 fold
- Fold MIC change, OM barrier, WT/WT-Pore [6]: 2 fold
- Fold MIC change, OM barrier, ΔTolC/ΔTolC-Pore [6]: 1 fold
- MIC BW 25113 (WT) — (E. coli BW 25113 (WT) [10]): 4 µg/mL
- MIC GD102 (ΔTolC) — (E. coli GD102 (ΔTolC)): 4 µg/mL
- MIC GD102 (ΔTolC) Pore [11]: 4 µg/mL

Molecule: Triclosan
- MIC Δ3 Pore [1]: 8 µg/mL
- MIC BW 25113 (WT) Pore [9]: 0.031 µg/mL
- MIC Δ3 — [2]: 32 µg/mL
- MIC PAO1 — (P. aeruginosa PAO1 [3]): >1024 µg/mL
- MIC BW 25113 (WT) — (E. coli BW 25113 (WT) [10]): 0.031 µg/mL
- MIC GD102 (ΔTolC) — (E. coli GD102 (ΔTolC)): 0.004 µg/mL
- MIC GD102 (ΔTolC) Pore [11]: 0.002 µg/mL
- MIC PAO1 Pore [5]: >1024 µg/mL

Molecule: Virginiamycin
- MIC BW 25113 (WT) Pore [9]: 256 µg/mL
- Fold MIC change, Efflux, WT-Pore/ΔTolC-Pore [6]: 512 fold
- Fold MIC change, Efflux, WT/ΔTolC [6]: ≧64 fold
- Fold MIC change, OM barrier, WT/WT-Pore [6]: ≧2 fold
- Fold MIC change, OM barrier, ΔTolC/ΔTolC-Pore [6]: 16 fold
- MIC BW 25113 (WT) — (E. coli BW 25113 (WT) [10]): >256 µg/mL
- MIC GD102 (ΔTolC) — (E. coli GD102 (ΔTolC)): 8 µg/mL
- MIC GD102 (ΔTolC) Pore [11]: 0.5 µg/mL

Molecule: CO[C@H]1/C=C/O[C@@]2(C)Oc3c(C)c(O)c4c(O)c(c(/C=N/N5CCN(C)CC5)c(O)c4c3C2=O)NC(=O)/C(C)=C\C=C\[C@H](C)[C@H](O)[C@@H](C)[C@@H](O)[C@@H](C)[C@H](OC(C)=O)[C@@H]1C [Rifampicin]
- MIC Δ3 Pore [1]: 0.5 µg/mL (≈ 0.608 µM)
- MIC Δ3 — [2]: 16 µg/mL (≈ 19.4 µM)
- MIC [7, 13]: 0.25 µg/mL
- MIC GD102 (ΔTolC) — (E. coli GD102 (ΔTolC)): 4 µg/mL (≈ 4.86 µM)
- MIC GD102 (ΔTolC) Pore [11]: 0.25 µg/mL (≈ 0.304 µM)
- MIC (P. aeruginosa PAO1 [12]): 16 µg/mL (≈ 19.4 µM)
- MIC ([5]; PAO1, 16 h, read-out: MIC PAO1 Pore): 0.5 µg/mL
- MIC (E. coli BW 25113 (WT) [8]; [14]): 4 µg/mL
